Target: T1, STING (Homo sapiens, UniProt Q86WV6)
T1 construct: gene STING1; human STING WT protein 6His-tagged (recombinant)
Assay: HTRF ligand-competitive binding assay with recombinant human STING; supported by CETSA in THP-1 cells

T1 sequence (Q86WV6 whole entry): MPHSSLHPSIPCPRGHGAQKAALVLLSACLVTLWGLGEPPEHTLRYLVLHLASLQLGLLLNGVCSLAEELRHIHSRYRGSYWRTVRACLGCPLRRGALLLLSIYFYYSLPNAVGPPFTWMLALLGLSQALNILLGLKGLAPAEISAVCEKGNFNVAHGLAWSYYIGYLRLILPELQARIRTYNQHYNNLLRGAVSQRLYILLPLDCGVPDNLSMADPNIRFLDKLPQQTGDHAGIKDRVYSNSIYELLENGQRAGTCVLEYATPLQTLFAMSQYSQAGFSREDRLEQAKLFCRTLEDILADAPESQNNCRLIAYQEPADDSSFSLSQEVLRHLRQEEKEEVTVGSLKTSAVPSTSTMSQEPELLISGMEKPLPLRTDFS

Nc1ccc(C(=O)N2CCc3cc(S(=O)(=O)N4C[C@H](c5ccccc5)NC4=O)ccc32)cc1 [DW2282]
STING competitive binding potency: > 10 µM

From publication PMC8773171, “Development of Small-Molecule STING Activators for Cancer Immunotherapy” (Biomedicines, 2021)
